These results are taken from US12582646B2, “Method for treating drug or alcohol dependency” (AETHER THERAPEUTICS INC., priority 2019, dated 2026).

Data set [1] has as its system peripheral opioid receptors. As to the kind of experiment: peripherally selective activity (internal results). It is filed as in vivo. The source says: The invention embodies usage of any of these compounds or derivatives or metabolites thereof. […] In combinations, any opioid analgesic is a feasible component, embodied in the combination patents mentioned above. An example is a combination product of oxycodone or hydrocodone with 6beta-naltrexol.

Data set [2] addresses mu opioid receptor (Homo sapiens, UniProt P35372). To be noted: cited from earlier work.
Another data set is described as follows: oral bioavailability. To be noted: value assumed for oral dosing. It is filed as in vivo. The procedure: This step applies to opioid use disorders. […] The recommended initial dose is 2 mg naltrexol orally (assuming ˜30% oral bioavailability; estimated dosage range 0.5-10 mg), once or twice daily for 2-4 days, followed by 6 mg once or twice daily for 4-8 days (estimated dosage range 2-20 mg twice daily). Step 1 is designed to suppress peripheral effects of the opioid drug with minimal peripheral withdrawal symptoms, and reverse at least partially opioid dependence.
Opioid antagonist maintenance with 6-beta-naltrexol may require 100 mg (dosage range 40-300 mg) per day orally (assuming 20-40% bioavailability). […] Ceasing opioid use altogether must be medically supervised for at least one year to determine the rate of recidivism.

Data set [3] addresses peripheral and central opioid receptors. As to the kind of experiment: blocking morphine iv effects (analgesia, slowing of bowel movement) in opioid naive subjects. It is filed as in vivo, humans. The procedure: Recommended doses are 20 mg (range 10-80 mg) once or twice daily for 4-8 days, then 40 mg (range 20-120 mg) once or twice daily for 1-4 weeks, and if necessary, further escalation to 100 mg (range 40-300 mg) once or twice daily for maintenance. […] Dosing schedules can be facilitated by designing sustained release formulations as described in preceding incorporated patents.

Another data set has as its system opioid receptors. To be noted: acutely morphine-dependent mice; cited from earlier work.
The target in data set [4] is T1, mu opioid receptor (Mus musculus, UniProt P42866).
T1 construct: from tissue; host or cells: living mice (whole-animal pharmacology)
In words: internal unpublished: co-administration with morphine or methadone, subsequent opioid withdrawal, mice. It is filed as in vivo. The note with it: dose as low as 0.01 mg/kg given together with morphine or methadone. An excerpt:
(§1) (See Corder G, Doolen S, Donahue R R, Winter M, Jutras B, He Y, Hu X, Wieskopf J S, Mogil J S, Storm D R, Wang Z J, McCarson K E, and Taylor B K, Constitutive μ-opioid receptor activity leads to long-term endogenous analgesia and dependence. Science 2013; 341,1394-1399; Corder G, Tawfik V L, Wang D, Sypek E I, Low S A, Dickinson J R, Sotoudeh C, Clark J D, Barres B A, Bohlen C J, Scherrer (2017). Loss of μ opioid receptor signaling in nociceptors, but not microglia, abrogates morphine tolerance without disrupting analgesia. Nat Med. 23:164-173; J. Oberdick, Y. L., M. A. Phelps, M. S. Yudovich, K. Schilling, and W. Sadee. Preferential delivery of an opioid antagonist to the fetal brain in pregnant mice. J. Pharmacol. Exp. Ther. 358: 22-30 (2016).

Data set [5] has as its system peripheral and central opioid receptors. In words: intravenous 6beta-naltrexol in methadone maintenance subjects.
The subject of data set [6] is mu opioid receptor. In words: internal unpublished: co-administration with morphine or methadone, subsequent opioid withdrawal, guinea pigs. It is filed as in vivo. To be noted: dose as low as 0.01 mg/kg given together with morphine or methadone.
Source text: as §1

For data set [7], the system named is peripheral and central opioid receptors. The note with it: methadone maintenance subjects, single intravenous dose 0.5-1 mg; cited from earlier work.
Data set [8] relates to rats habituated to high alcohol consumption. To be noted: acute; cited from earlier work.
The conditions of data set [9]: in vivo; cited from earlier work.
Data set [10] addresses T1, mu opioid receptor. To be noted: 0.02 mg/kg co-injected s.c. with 20 mg/kg morphine for several days, juvenile mice; cited from earlier work.
Data set [11] relates to peripheral and central opioid receptors. The note with it: mice, given orally; cited from earlier work.
In data set [12] the test system is spontaneous opioid receptor activity. The note with it: opioid dependent mice, 24 hours after the last morphine dose; cited from earlier work.
[13] abbreviates: 4 methadone replacement patients, IV doses up to 1 mg.

T1 sequence (P42866 whole entry): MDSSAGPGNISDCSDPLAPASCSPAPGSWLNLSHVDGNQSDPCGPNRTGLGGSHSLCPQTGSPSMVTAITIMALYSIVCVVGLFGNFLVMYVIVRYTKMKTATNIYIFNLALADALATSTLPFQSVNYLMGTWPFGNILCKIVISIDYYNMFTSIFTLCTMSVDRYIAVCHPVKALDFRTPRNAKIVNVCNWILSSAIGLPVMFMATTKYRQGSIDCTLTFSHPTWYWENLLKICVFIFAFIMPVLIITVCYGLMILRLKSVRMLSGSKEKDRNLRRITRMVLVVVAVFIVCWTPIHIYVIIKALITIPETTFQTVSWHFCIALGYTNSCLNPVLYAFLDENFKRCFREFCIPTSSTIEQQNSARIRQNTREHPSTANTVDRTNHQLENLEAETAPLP
Sequence of mu opioid receptor (Homo sapiens, UniProt P35372) (P35372 whole entry, species assumed): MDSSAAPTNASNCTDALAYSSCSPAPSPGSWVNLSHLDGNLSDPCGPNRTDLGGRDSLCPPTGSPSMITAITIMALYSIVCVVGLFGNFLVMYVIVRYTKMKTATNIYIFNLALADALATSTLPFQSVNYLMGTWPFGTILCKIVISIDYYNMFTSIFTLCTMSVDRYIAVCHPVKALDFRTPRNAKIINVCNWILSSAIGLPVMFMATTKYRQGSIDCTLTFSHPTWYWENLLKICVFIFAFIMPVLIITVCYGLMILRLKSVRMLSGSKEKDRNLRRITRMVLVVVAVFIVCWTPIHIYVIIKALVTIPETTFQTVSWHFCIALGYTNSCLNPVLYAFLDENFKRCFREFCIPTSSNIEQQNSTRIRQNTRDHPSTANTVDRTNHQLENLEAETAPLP

`CC(=O)N[C@@H]1CC[C@@]2(O)[C@H]3Cc4ccc(O)c5c4[C@@]2(CCN3CC2CC2)[C@@H]1O5` [6beta-naltrexamide]: in data set [1], the peripherally selective activity result was “strong peripherally selective activity”. Moreover, the “type of opioid antagonism” value on mu opioid receptor [2] is recorded as “neutral antagonism”.

`Oc1ccc2c3c1O[C@H]1[C@H](O)CC[C@@]4(O)[C@@H](C2)N(CC2CC2)CC[C@]314` [6beta-naltrexol]: the oral bioavailability in “oral bioavailability” (listed as 6-beta-naltrexol) was 20-40%. Further, in the data set “oral bioavailability” (listed as naltrexol), the oral bioavailability is given as ~30%. For the same compound, in [3] (iv), the “IC50 for blocking morphine induced slowing of bowel movement” value is given as ~3 mg. Further, in data set [3] (single dose of 20 mg iv, opioid naive subjects), the “block of analgesia caused by 10 mg morphine iv” value was “failed to block analgesia”. For the same compound, the “effect on naloxone induced withdrawal jumping” value in the data set on opioid receptors was “prevent naloxone (inverse agonist) induced withdrawal jumping”. Further, the subsequent opioid withdrawal result on mu opioid receptor [4] is listed as “reduces or prevents subsequent opioid withdrawal”. Further, the “tolerated IV dose” value in data set [5] (4 methadone replacement patients sensitive to 0.05 mg naloxone i.v.) is on record as “up to 1 mg”. For the same compound, in data set [5] (setting [13]), the bowel effect result is “bowel movements” and the withdrawal symptoms entry was “some additional peripheral, but no central, withdrawal symptoms”. Moreover, the subsequent opioid withdrawal entry with mu opioid receptor [6] is “reduces or prevents subsequent opioid withdrawal”. For the same compound, in [7], the central withdrawal symptoms entry is “no central withdrawal symptoms” and the “effect on opioid induced constipation” value is “can reverse opioid induced constipation”. Further, the “alcohol and sucrose intake” value in data set [8] is “prevents both alcohol and sucrose intake acutely, but only at high doses”. The “half-life compared with typical opioid analgesics” value in [9] was “longer half-life”. At mu opioid receptor [10], the “naloxone-withdrawal jumping after co-injection with morphine” value was “significantly reduced”.

As to `O=C1CC[C@@]2(O)[C@H]3Cc4ccc(O)c5c4[C@@]2(CCN3CC2CC2)[C@H]1O5` [naltrexone], the “potency in blocking peripheral and central opioid analgesic effects” value in data set [11] was “equally potent”. The “withdrawal elicited by the antagonist” value in data set [12] was “robust withdrawal”.
